Series [1] concerns the target T1, Androgen receptor (Homo sapiens, UniProt P10275, T878A).
Description: Agonist activity at Androgen receptor T877A mutant in human LNCaP-hr cells assessed as prostate specific antigen secretion measured after 3 days by enzyme-immunoassay
Series [2] deals with T2, Androgen receptor (Homo sapiens, UniProt P10275).
T2 sequence (P10275 whole entry): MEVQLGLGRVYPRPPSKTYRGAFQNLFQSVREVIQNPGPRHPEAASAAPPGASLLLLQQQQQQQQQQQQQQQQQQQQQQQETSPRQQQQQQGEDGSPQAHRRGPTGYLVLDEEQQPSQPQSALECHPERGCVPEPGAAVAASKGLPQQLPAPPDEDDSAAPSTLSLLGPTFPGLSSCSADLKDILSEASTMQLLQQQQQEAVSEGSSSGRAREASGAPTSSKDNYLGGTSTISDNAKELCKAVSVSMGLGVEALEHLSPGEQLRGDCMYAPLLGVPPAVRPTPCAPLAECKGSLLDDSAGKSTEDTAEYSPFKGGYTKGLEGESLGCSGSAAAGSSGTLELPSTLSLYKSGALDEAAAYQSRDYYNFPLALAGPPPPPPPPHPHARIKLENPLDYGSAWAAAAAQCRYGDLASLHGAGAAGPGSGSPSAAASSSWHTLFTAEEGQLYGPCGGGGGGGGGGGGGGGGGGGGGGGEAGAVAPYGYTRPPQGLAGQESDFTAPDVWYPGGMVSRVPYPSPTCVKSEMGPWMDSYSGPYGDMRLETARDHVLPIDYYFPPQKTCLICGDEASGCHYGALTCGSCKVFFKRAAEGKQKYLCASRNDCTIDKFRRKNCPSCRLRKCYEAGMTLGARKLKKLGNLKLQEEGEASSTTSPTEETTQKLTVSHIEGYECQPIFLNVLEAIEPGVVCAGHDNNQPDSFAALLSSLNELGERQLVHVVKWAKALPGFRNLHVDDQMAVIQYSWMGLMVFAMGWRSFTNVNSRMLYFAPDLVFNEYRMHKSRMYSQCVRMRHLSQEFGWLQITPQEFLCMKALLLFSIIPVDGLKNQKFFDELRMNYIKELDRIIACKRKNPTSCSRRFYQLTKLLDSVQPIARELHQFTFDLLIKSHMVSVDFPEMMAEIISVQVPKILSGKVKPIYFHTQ
Description: Antagonist activity at wild type Androgen receptor (unknown origin) expressed in human Cos-7 cells co-expressing pGL3-MMTV-luc vector assessed as luciferase activity by reporter gene assay

Series [3] concerns the target T1, Androgen receptor. The source holds these as a separate data set.
Description: Inhibition of Androgen receptor T877A mutant (unknown origin) expressed in Freestyle293F cells
Series [4] addresses T2, Androgen receptor. The source holds these as a separate data set.
Description: Agonist activity at wild type Androgen receptor in human LNCaP-hr cells assessed as prostate specific antigen secretion measured after 3 days by enzyme-immunoassay
Series [5] has as its target T1, Androgen receptor. This is another data set of the same source.
Description: Antagonist activity at Androgen receptor T877A mutant (unknown origin) expressed in human Cos-7 cells co-expressing pGL3-MMTV-luc vector assessed as luciferase activity by reporter gene assay
The target of series [6] is T2, Androgen receptor. This is another data set of the same source.
Description: Inhibition of wild type Androgen receptor (unknown origin) expressed in Freestyle293F cells
A short description of series [7]: Mean residence time in mouse at 30 mg/kg, po. It is filed as ADME, organism-based. Also on record: dose 30 mg/kg, route oral. The following applies: in vivo.
A short description of series [8]: Antitumor activity against human LNCaP-hr cells in BALB/c mouse xenograft model assessed as inhibition of tumor growth at 30 mg/kg, po bid for 28 days (reference value: 100%). It is filed as functional.
A short description of series [9]: Antitumor activity against human LNCaP-hr cells in BALB/c mouse xenograft model assessed as plasma prostate specific antigen level at 30 mg/kg, po bid for 28 days by ELISA (reference value: 23.8 +/- 6.1 ng/ml). It is filed as functional. (A xenograft is tissue or cells of one species grown in another, often human tumour cells in immunodeficient mice.)
Series [10] can be described thus: AUC in mouse at 30 mg/kg, po. It is filed as ADME, organism-based. Also on record: dose 30 mg/kg, route oral. The following applies: plasma.
Series [11] in a line: Antitumor activity against human LNCaP-hr cells in BALB/c mouse xenograft model assessed as plasma prostate specific antigen level at 10 mg/kg, po bid for 28 days by ELISA (reference value: 23.8 +/- 6.1 ng/ml). It is filed as functional.
Series [12] is described as follows: Antitumor activity against human LNCaP-hr cells in BALB/c mouse xenograft model assessed as inhibition of tumor growth at 10 mg/kg, po bid for 28 days (reference value: 100%). It is filed as functional.
A short description of series [13]: Half life in mouse plasma. It is filed as ADME, cell-free.
Series [14] is described as follows: Antitumor activity against human LNCaP-hr cells in BALB/c mouse xenograft model assessed as inhibition of tumor growth at 100 mg/kg, po qd for 28 days (reference value: 100%). It is filed as functional.
Series [15] in a line: Antitumor activity against human LNCaP-hr cells in BALB/c mouse xenograft model assessed as plasma prostate specific antigen level at 100 mg/kg, po qd for 28 days by ELISA (reference value: 23.8 +/- 6.1 ng/ml). It is filed as functional.

T1 sequence (P10275 whole entry T878A): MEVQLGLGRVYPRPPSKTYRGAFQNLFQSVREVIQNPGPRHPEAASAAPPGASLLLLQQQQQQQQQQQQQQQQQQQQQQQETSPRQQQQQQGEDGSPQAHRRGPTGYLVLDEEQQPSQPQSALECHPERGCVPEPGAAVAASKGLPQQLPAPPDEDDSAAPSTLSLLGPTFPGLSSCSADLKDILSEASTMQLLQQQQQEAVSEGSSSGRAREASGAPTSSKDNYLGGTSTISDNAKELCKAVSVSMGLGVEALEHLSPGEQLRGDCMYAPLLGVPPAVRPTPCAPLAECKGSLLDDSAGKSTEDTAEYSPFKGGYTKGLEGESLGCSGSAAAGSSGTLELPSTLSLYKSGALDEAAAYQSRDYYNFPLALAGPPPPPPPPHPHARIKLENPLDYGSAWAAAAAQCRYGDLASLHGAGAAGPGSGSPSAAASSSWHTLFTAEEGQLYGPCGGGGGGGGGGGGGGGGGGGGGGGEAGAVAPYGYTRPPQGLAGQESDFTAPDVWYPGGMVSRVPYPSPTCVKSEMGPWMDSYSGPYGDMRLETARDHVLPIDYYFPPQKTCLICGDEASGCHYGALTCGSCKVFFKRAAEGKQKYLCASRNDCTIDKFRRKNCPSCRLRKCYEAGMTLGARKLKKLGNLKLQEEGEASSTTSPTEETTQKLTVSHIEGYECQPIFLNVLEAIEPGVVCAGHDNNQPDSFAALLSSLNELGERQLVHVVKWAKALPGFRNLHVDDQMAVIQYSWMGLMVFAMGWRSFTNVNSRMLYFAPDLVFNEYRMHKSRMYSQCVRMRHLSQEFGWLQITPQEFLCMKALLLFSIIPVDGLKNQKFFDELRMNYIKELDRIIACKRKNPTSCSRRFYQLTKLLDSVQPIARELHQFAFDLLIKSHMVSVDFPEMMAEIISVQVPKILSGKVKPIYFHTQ

Take `N#Cc1ccc(N2CCC(O)(Cc3ccccc3)C2)cc1Cl` (configuration not stated): the results for the EC50 in series [1] and in series [4] were 4800 nM and above 10000 nM, respectively. Besides, the IC50 (usually the concentration that gives 50% inhibition) in series [2] was found to be 1000 nM; in series [3], 59 nM; in series [5], 450 nM; in series [6] it was 420 nM.
Take `N#Cc1ccc(N2CCC(O)C2)cc1Cl` (configuration not stated): the values for the EC50 in series [1] and in series [4] were 640 nM and 4700 nM, respectively. The IC50 is 82 nM in series [2], 30 nM in [3], above 10000 nM in [5] and 120 nM in [6].
Take `C[C@@H]1N(c2ccc(C#N)c(Cl)c2)CC[C@@]1(O)c1ccc(F)cc1`: the EC50 (usually the concentration giving half of the maximal effect) in series [1] was 20 nM; in series [4] it was above 10000 nM. The IC50 was 17 nM in [2], 8.1 nM in series [3], above 10000 nM in [5] and 8 nM in [6].
With `C[C@@H]1N(c2ccc(C#N)c(Cl)c2)CC[C@@]1(O)c1ccc(C(N)=O)cc1`, the EC50 in series [1] is 10000 nM; in [4], above 10000 nM. Further, the IC50 in series [2] amounted to 17 nM; in series [3] it was 42 nM; in series [5], 9 nM; in series [6] it was 27 nM.
Take `CNC(=O)c1ccc([C@]2(O)CCN(c3ccc(C#N)c(Cl)c3)[C@H]2C)cc1`: the EC50 was 10000 nM in [1] and above 10000 nM in [4]. Further, the IC50 in series [2] was 8.6 nM; in [3] it was 18 nM; in series [5], 10 nM; in [6], 32 nM.
In the case of `CNC(=O)c1ccc([C@]2(O)CCN(c3ccc(C#N)c(Cl)c3)[C@H]2C)nc1`, the values for the concentration giving a half-maximal response (EC50) in series [1] and in [4] were 5100 nM and above 10000 nM, respectively. Besides, the concentration for half-maximal inhibition (IC50) in [2] was determined as 120 nM; in series [3] it was 16 nM; in [5] it was 100 nM; in [6], 68 nM.
As for `CNC(=O)c1ccc([C@]2(O)CCN(c3ccc(C#N)c(Cl)c3)[C@H]2C)cn1`, the concentration for a half-maximal effect (EC50) in series [1] and in series [4] was above 10000 nM throughout. Also, the IC50 in series [2] turned out to be 25 nM; in series [3], 100 nM; in [5] it was 99 nM; in [6], 44 nM.
Consider `C[C@@H]1N(c2ccc(C#N)c(Cl)c2)CC[C@@]1(O)c1ccc(C(=O)N(C)C)nc1`, for which the EC50 in series [1] and in [4] was above 10000 nM in each case. Further, the IC50 in series [2] came out at 1700 nM; in series [3], 3000 nM; in series [5], 10000 nM; in series [6], 1100 nM.
With `CNC(=O)c1ccc([C@@]2(O)CCN(c3ccc(C#N)c(Cl)c3)[C@@H]2C)cn1`, the EC50 in [1] and in series [4] was above 10000 nM each time. For the same compound, the IC50 was found to be 6400 nM in series [2], 97 nM in series [3], 1600 nM in series [5] and 1600 nM in series [6].
Consider `C[C@@H]1N(c2ccc(C#N)c(Cl)c2)CC[C@@]1(O)c1ccc(N2CCCC2=O)nc1`, for which the IC50 in series [2] amounted to 11 nM; in series [3], 87 nM; in series [5] it was 160 nM; in series [6], 13 nM.
On the same counts, the results for `CNC(=O)c1ccc([C@]2(O)CCN(c3ccc(C#N)c(OC)c3)[C@H]2C)cn1` are 62 nM, 240 nM, 730 nM and 120 nM.
On the same counts, the results for `CNC(=O)c1ccc([C@]2(O)CCN(c3ccc(C#N)cc3)[C@H]2C)cn1` are 400 nM, 5300 nM, 1400 nM and 7600 nM.
As for `CNC(=O)c1ccc([C@]2(O)CCN(c3ccc(C#N)c(F)c3)[C@H]2C)cn1`, in series [7], the MRT – broadly, a mean duration of stay, worked out from the concentration-time curve – worked out at 4.07 h. In addition, the T/C (usually the result in the treated group divided by that in the control group, in per cent) in [8] is 18%; in series [12], 139%. The IC50 in series [2] came out at 290 nM; in series [3], 1700 nM; in [5] it was 1700 nM; in [6] it was 830 nM. The Activity in [9] is 4.3 ng/mL; in series [11], 33 ng/mL. For the same compound, in series [10], the AUC (usually concentration integrated over time) came to 232 µg·h/mL.
In the case of `N#Cc1ccc(N2CCC(O)(c3ccccc3)C2)cc1Cl` (racemic), the concentration giving a half-maximal response (EC50) in [1] and in series [4] was above 10000 nM in each case. Also, the IC50 was 380 nM in [2], 130 nM in series [3], 250 nM in [5] and 370 nM in series [6].
Regarding `N#Cc1ccc(N2CCC(O)(c3ccc(F)cc3)C2)cc1Cl` (racemic), the EC50 in [1] and in series [4] was above 10000 nM in each case. In addition, the half-maximal inhibitory concentration (IC50) in series [2] is 68 nM; in series [3], 36 nM; in series [5], 65 nM; in [6] it was 180 nM.
As to `C[C@](O)(CS(=O)(=O)c1ccc(F)cc1)C(=O)Nc1ccc(C#N)c(C(F)(F)F)c1` [(R)-BICALUTAMIDE], the half-life (usually how long it takes for the measured level to halve) in series [13] is 101 h.
Still for that read-out and setting: under `C[C@@](O)(CS(=O)(=O)c1ccc(F)cc1)C(=O)Nc1ccc(C#N)c(C(F)(F)F)c1` [(S)-BICALUTAMIDE] stands 19 h.
Regarding `CC(O)(CS(=O)(=O)c1ccc(F)cc1)C(=O)Nc1ccc(C#N)c(C(F)(F)F)c1` (configuration not stated) [BICALUTAMIDE], the T/C in series [14] is given as 191%. Also, the Activity in series [15] came out at 45.6 ng/mL.

(Values after ChEMBL document CHEMBL2331321, “Design, synthesis, and biological evaluation of 3-aryl-3-hydroxy-1-phenylpyrrolidine derivatives as novel androgen receptor antagonists” (Bioorg Med Chem, 2013).)
